Experimental data reported in patent US20100267561A1, “HERBICIDAL PYRIDAZINONE DERIVATIVES” (priority 2007, published 2010).

Experiments:
Assay type in all cases: in vivo
[1] = tested on: large crabgrass (Digitaria sanguinalis); experiment: Test A pre-/postemergence plant response
Method in brief: (§1)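 Scores reflect visual plant injury relative to untreated controls on a 0–100 scale, recorded approximately 10 days after simultaneous preemergence soil spraying and postemergence spraying of one- to two-leaf seedlings grown in loam–sand.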

[2] = tested on: barnyardgrass (Echinochloa crus-galli); experiment: Test A pre-/postemergence plant response
Method in brief: as §1

corn (Zea mays) = experiment: Test A pre-/postemergence plant response
Method in brief: as §1

[3] = tested on: giant foxtail (Setaria faberi); experiment: Test A pre-/postemergence plant response
Method in brief: as §1

[4] = tested on: wheat (Triticum aestivum); experiment: Test A pre-/postemergence plant response
Method in brief: as §1

[5] = tested on: umbrella sedge (Cyperus difformis); experiment: Test B flooded paddy test plant response
Method in brief: (§2)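 Step one: raise plants to 2 leaves. Step two: flood pots 3 cm over the soil and apply compound into the water, keeping this depth. Step three: after 13–15 greenhouse days, score visually versus controls, 0–100, where 100 means complete control.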

[6] = tested on: barnyardgrass (Echinochloa crus-galli); experiment: Test B flooded paddy test plant response
Method in brief: as §2

rice (Oryza sativa) = experiment: Test B flooded paddy test plant response
Method in brief: as §2

[7] = tested on: chickweed (Stellaria media); experiment: Test B postemergence plant response; settings: for Chickweed plant response rating: postemergence, 0-100 scale; for Plant response rating, Chickweed: Postemergence
Method in brief: (§3)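 Following treatment of plants 2 to 18 cm high after emergence, pots were held under glass for 13 to 15 days; efficacy was then graded visually, 100 denoting complete control and a dash no test result.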

[8] = tested on: canarygrass (Phalaris minor); experiment: Test B postemergence plant response; settings: for Plant response rating, Canarygrass: Postemergence
Method in brief: as §3

[9] = tested on: windgrass (Apera spica-venti); experiment: Test B postemergence plant response; settings: for Windgrass plant response rating: postemergence, 0-100 scale; for Plant response rating, Windgrass: Postemergence
Method in brief: as §3

[10] = tested on: winter barley (Hordeum vulgare); experiment: Test B postemergence plant response; settings: for Barley plant response rating: postemergence; for Plant response rating, Barley: Postemergence, scale 0 to 100, 0 no effect, 100 complete control
Method in brief: as §3

[11] = Postemergence, 31 g ai/ha, 0 to 100 scale, 0 no effect, 100 complete control
[12] = Postemergence, 125 g ai/ha, 0 to 100 scale, 0 no effect, 100 complete control
[13] = Preemergence, 31 g ai/ha, 0 to 100 scale, 0 is no effect, 100 is complete control
[14] = Preemergence, 125 g ai/ha, 0 to 100 scale (0 no effect, 100 complete control)
[15] = Flood (flooded paddy test), 125 g ai/ha, scale 0 to 100, 0 no effect, 100 complete control
[16] = Flood (flooded paddy test), 250 g ai/ha, scale 0 to 100, 0 no effect, 100 complete control
[17] = Flood, 31 g ai/ha, scale 0 to 100
[18] = Flood, 62 g ai/ha, scale 0 to 100
[19] = 62 g ai/ha, scale 0 to 100, 0 no effect, 100 complete control
[20] = Flood (flooded paddy test), 62 g ai/ha, scale 0 to 100, 0 no effect, 100 complete control

For `CCc1c(C)c(-c2ccc(Br)cc2)nn1-c1c(O)cnn(C)c1=O` [Compound 83], the “Plant response rating, Crabgrass, Large” value [1, 11] was 60, the “Plant response rating, Crabgrass, Large” value [1, 12] was 100 and the “Plant response rating, Crabgrass, Large” value [1, 13] was 0. The “Plant response rating, Crabgrass, Large” value [1, 14] was 70, the “Plant response rating, Barnyardgrass” value [2, 11] was 100 and the “Plant response rating, Barnyardgrass” value [2, 12] was 100. The “Plant response rating, Barnyardgrass” value [2, 13] was 20, the “Plant response rating, Barnyardgrass” value [2, 14] was 100 and the “Plant response rating, Corn” value (corn (Zea mays); [11]) was 0. For the same molecule, the “Plant response rating, Corn” value (corn (Zea mays); [12]) was 100, the “Plant response rating, Corn” value (corn (Zea mays); [13]) was 0 and the “Plant response rating, Corn” value (corn (Zea mays); [14]) was 40. For the same molecule, the “Plant response rating, Foxtail, Giant” value [3, 11] was 90, the “Plant response rating, Foxtail, Giant” value [3, 12] was 100 and the “Plant response rating, Foxtail, Giant” value [3, 13] was 0. For the same molecule, the “Plant response rating, Foxtail, Giant” value [3, 14] was 100, the “Plant response rating, Wheat” value [4, 11] was 0 and the “Plant response rating, Wheat” value [4, 12] was 60. The “Plant response rating, Wheat” value [4, 13] was 0, the “Plant response rating, Wheat” value [4, 14] was 30 and the “Plant response rating, Sedge, Umbrella” value [5, 15] was 0. For the same molecule, the “Plant response rating, Sedge, Umbrella” value [5, 16] was 0, the “Plant response rating, Sedge, Umbrella” value [5, 17] was 0 and the “Plant response rating, Sedge, Umbrella” value [5, 18] was 0. For the same molecule, the “Plant response rating, Barnyardgrass” value [6, 15] was 0, the “Plant response rating, Barnyardgrass” value [6, 16] was 0 and the “Plant response rating, Barnyardgrass” value [6, 17] was 0. For the same molecule, the “Plant response rating, Barnyardgrass” value [6, 18] was 0, the “Plant response rating, Rice” value (rice (Oryza sativa); [15]) was 0 and the “Plant response rating, Rice” value (rice (Oryza sativa); [16]) was 0. For the same molecule, the “Plant response rating, Rice” value (rice (Oryza sativa); [17]) was 0, the “Plant response rating, Rice” value (rice (Oryza sativa); [18]) was 0 and the “Chickweed plant response rating” value ([7]; 8 g ai/ha) was 0. The “Chickweed plant response rating” value ([7]; 16 g ai/ha) was 0, the “Plant response rating, Chickweed” value ([7]; 31 g ai/ha, scale 0 to 100) was 0 and the “Plant response rating, Chickweed” value [7, 19] was 0. For the same molecule, the “Canarygrass plant response rating” value ([8]; 8 g ai/ha, postemergence, 0-100 scale) was 65, the “Plant response rating, Canarygrass” value ([8]; 31 g ai/ha, scale 0 to 100) was 90 and the “Plant response rating, Canarygrass” value [8, 19] was 90. For the same molecule, the “Windgrass plant response rating” value ([9]; 8 g ai/ha) was 90, the “Windgrass plant response rating” value ([9]; 16 g ai/ha) was 98 and the “Plant response rating, Windgrass” value ([9]; 31 g ai/ha, scale 0 to 100) was 100. The “Plant response rating, Windgrass” value [9, 19] was 100, the “Barley plant response rating” value ([10]; 8 g ai/ha, 0-100 scale) was 0 and the “Barley plant response rating” value ([10]; 16 g ai/ha, 0-100 scale (0 no effect, 100 complete control)) was 0. For the same molecule, the “Plant response rating, Barley” value ([10]; 31 g ai/ha) was 45 and the “Plant response rating, Barley” value ([10]; 62 g ai/ha) was 45.

In the case of `CCCc1cc(-c2ccc(C(F)(F)F)cc2)nn1-c1c(O)cnn(C)c1=O` [Compound 72], the “Plant response rating, Crabgrass, Large” value [1, 11] is reported as 20, the “Plant response rating, Crabgrass, Large” value [1, 12] is reported as 90 and the “Plant response rating, Crabgrass, Large” value [1, 13] is reported as 0. For the same molecule, the “Plant response rating, Crabgrass, Large” value [1, 14] was 60, the “Plant response rating, Barnyardgrass” value [2, 11] was 50 and the “Plant response rating, Barnyardgrass” value [2, 12] was 100. The “Plant response rating, Barnyardgrass” value [2, 13] was 20, the “Plant response rating, Barnyardgrass” value [2, 14] was 90 and the “Plant response rating, Corn” value (corn (Zea mays); [11]) was 80. The “Plant response rating, Corn” value (corn (Zea mays); [12]) was 100, the “Plant response rating, Corn” value (corn (Zea mays); [13]) was 20 and the “Plant response rating, Corn” value (corn (Zea mays); [14]) was 50. For the same molecule, the “Plant response rating, Foxtail, Giant” value [3, 11] was 90, the “Plant response rating, Foxtail, Giant” value [3, 12] was 100 and the “Plant response rating, Foxtail, Giant” value [3, 13] was 70. For the same molecule, the “Plant response rating, Foxtail, Giant” value [3, 14] was 90, the “Plant response rating, Wheat” value [4, 11] was 60 and the “Plant response rating, Wheat” value [4, 12] was 90. For the same molecule, the “Plant response rating, Wheat” value [4, 13] was 50, the “Plant response rating, Wheat” value [4, 14] was 80 and the “Plant response rating, Sedge, Umbrella” value [5, 20] was 0. For the same molecule, the “Plant response rating, Sedge, Umbrella” value [5, 15] was 60, the “Plant response rating, Sedge, Umbrella” value [5, 16] was 65 and the “Plant response rating, Sedge, Umbrella” value [5, 17] was 0. For the same molecule, the “Plant response rating, Barnyardgrass” value [6, 20] was 20, the “Plant response rating, Barnyardgrass” value [6, 15] was 40 and the “Plant response rating, Barnyardgrass” value [6, 16] was 70. For the same molecule, the “Plant response rating, Barnyardgrass” value [6, 17] was 0, the “Plant response rating, Rice” value (rice (Oryza sativa); [20]) was 15 and the “Plant response rating, Rice” value (rice (Oryza sativa); [15]) was 45. The “Plant response rating, Rice” value (rice (Oryza sativa); [16]) was 65, the “Plant response rating, Rice” value (rice (Oryza sativa); [17]) was 10 and the “Chickweed plant response rating” value ([7]; 8 g ai/ha) was 0. The “Plant response rating, Chickweed” value ([7]; 16 g ai/ha, scale 0 to 100) was 0, the “Plant response rating, Chickweed” value ([7]; 31 g ai/ha, scale 0 to 100) was 0 and the “Plant response rating, Chickweed” value [7, 19] was 0. For the same molecule, the “Plant response rating, Canarygrass” value ([8]; 16 g ai/ha, scale 0 to 100) was 30, the “Plant response rating, Canarygrass” value ([8]; 31 g ai/ha, scale 0 to 100) was 30 and the “Plant response rating, Canarygrass” value [8, 19] was 95. The “Windgrass plant response rating” value ([9]; 8 g ai/ha) was 85, the “Windgrass plant response rating” value ([9]; 16 g ai/ha) was 100 and the “Plant response rating, Windgrass” value ([9]; 31 g ai/ha, scale 0 to 100) was 100. For the same molecule, the “Plant response rating, Windgrass” value [9, 19] was 100, the “Barley plant response rating” value ([10]; 8 g ai/ha, 0-100 scale) was 0 and the “Plant response rating, Barley” value ([10]; 16 g ai/ha) was 0. The “Plant response rating, Barley” value ([10]; 31 g ai/ha) was 0 and the “Plant response rating, Barley” value ([10]; 62 g ai/ha) was 95.
